Experimental findings from patent US20050003000A1, “Method for the formation of ibuprofen crystals” (priority 2001, published 2005) are described below.

A short description of the series: Powder dissolution / in vitro release rate of the pure active compound, phosphate buffer pH 7.4 USP XXIV, paddle process 100 rpm. To be noted: for Amount released [%] after 2 min: Table 3, ibuprofen crystallized by displacement precipitation; for Rate of dissolution (in words) / Active compound dissolved after 5 min / Active compound dissolved after 8 min: 3 l scale crystallizate. The series is classed as physicochemical. As to the method:
The measurements of the release rate was carried out according to USP XXIV.
• 1. 80 g of ibuprofen are dissolved in 100 ml of isopropanol at 40° C. Precipitation is then carried out by addition of ice water (450 ml/stirrer speed 50 rpm) during the course of 70 min. During this process cooling to 10° C. takes place. The crystals are recovered by filtration and dried in vacuo. […] 3.2 g of sucrose monolaurate are added as an additive. Precipitation is then carried out by addition of ice water (450 ml/stirrer speed 200 rpm) during the course of 70 min. During this process cooling to 10° C. takes place. The crystals are recovered by filtration, washed with ice water (3×50 ml) and dried in vacuo. […] 8 g of Tween®80 are added as an additive. Precipitation is then carried out by addition of ice water (450 ml/stirrer speed 200 rpm) during the course of 70 min. During this process cooling to 10° C. takes place. The crystals are recovered by filtration, washed with ice water (3×50 ml) and dried in vacuo. […] 80 g of ibuprofen are dissolved in 100 ml of isopropanol at 40° C. 3 g of sucrose monolaurate are added as an additive. Precipitation is then carried out by addition of ice water (450 ml/stirrer speed 200 rpm) during the course of 70 min; during this process, cooling to 10° C. takes place; the crystals are recovered by filtration, washed with ice water (3×150 ml) and dried in vacuo.

Where [1] appears, read: Table 1, ibuprofen powder, time 0 min.
The mark [2] stands for this setting: Table 1, ibuprofen powder, time 2 min.
Where [3] appears, read: Table 1, ibuprofen powder, time 5 min.
Where [4] appears, read: Table 1, ibuprofen powder, time 8 min.
The mark [5] stands for this setting: Table 1, ibuprofen powder, time 10 min.
The mark [6] stands for this setting: Table 1, ibuprofen powder, time 15 min.
Setting [7] is: Table 1, ibuprofen powder, time 20 min.
Where [8] appears, read: Table 2, ibuprofen powder, time 0.
[9] abbreviates: Table 2, ibuprofen powder, time 2.
Setting [10] is: Table 2, ibuprofen powder, time 5.
[11] abbreviates: Table 2, ibuprofen powder, time 8.
The mark [12] stands for this setting: Table 2, ibuprofen powder, time 10.
The mark [13] stands for this setting: Table 2, ibuprofen powder, time 15.
Setting [14] is: Table 2, ibuprofen powder, time 20.
[15] abbreviates: powder dissolution, pure active compound, phosphate buffer pH 7.4 USP XXIV.

As to `CC(C)Cc1ccc(C(C)C(=O)O)cc1` (stereo not drawn) [Additive: sucrose monolaurate, ibuprofen], the “Amount released [%] after 2 min” value came to 85.2%. The “Amount released [%]” value under setting [1] was determined as 0.0%. Also, the “Amount released [%]” value under setting [2] worked out at 85.2%. Moreover, the “Amount released [%]” value under setting [3] is on record as 98.8%. The “Amount released [%]” value under setting [4] was found to be 100.0%. Further, under setting [5], the “Amount released [%]” value is recorded as 100.0%. Besides, under setting [6], the “Amount released [%]” value amounted to 100.0%. The “Amount released [%]” value under setting [7] came to 100.0%. The “Amount released [%]” value under setting [8] was found to be 0.0%. For the same compound, the “Amount released [%]” value under setting [9] is 85.9%. The “Amount released [%]” value under setting [10] came to 98.4%. Also, the “Amount released [%]” value under setting [11] is recorded as 99.5%. The “Amount released [%]” value under setting [12] is given as 99.9%. Moreover, the “Amount released [%]” value under setting [13] worked out at 100.7%. The “Amount released [%]” value under setting [14] amounted to 100.6%.
Regarding `CC(C)Cc1ccc(C(C)C(=O)O)cc1` (stereo not drawn) [Example 4, ibuprofen], under setting [15], the “Time after which a 100% release / dissolution is seen” value was 5 min and the “Release / dissolution within (after) 2 minutes” value (shortened to “Release / dissolution within”) came to 85%.
Take `CC(C)Cc1ccc(C(C)C(=O)O)cc1` (stereo not drawn) [Example 11, ibuprofen]: the “Rate of dissolution (in words)” value is “comparatively good rate of dissolution”, the “Active compound dissolved after 5 min” value is given as 81% and the “Active compound dissolved after 8 min” value was determined as 90%.
In the case of `CC(C)Cc1ccc(C(C)C(=O)O)cc1` (stereo not drawn) [Example 5, ibuprofen], under setting [15], the “Time after which a 100% release / dissolution is seen” value stood at 5 min and the “Release / dissolution within” value was found to be 85%.
For `CC(C)Cc1ccc(C(C)C(=O)O)cc1` (stereo not drawn) [Example 14, ibuprofen], the “Rate of dissolution (in words)” value is recorded as “good rate of dissolution”.
Consider `CC(C)Cc1ccc(C(C)C(=O)O)cc1` (stereo not drawn) [Commercial article, ibuprofen], for which the “Amount released [%] after 2 min” value stood at 15.1%. Under setting [1], the “Amount released [%]” value is given as 0.0%. For the same compound, the “Amount released [%]” value under setting [2] is on record as 15.1%. Also, the “Amount released [%]” value under setting [3] is on record as 36.9%. Under setting [4], the “Amount released [%]” value is reported as 59.5%. In addition, the “Amount released [%]” value under setting [5] turned out to be 73.9%. Further, the “Amount released [%]” value under setting [6] came to 98.0%. Also, under setting [7], the “Amount released [%]” value was found to be 99.0%. For the same compound, the “Amount released [%]” value under setting [8] worked out at 0.0%. Also, the “Amount released [%]” value under setting [9] is listed as 15.1%. The “Amount released [%]” value under setting [10] stood at 36.9%. Besides, the “Amount released [%]” value under setting [11] is listed as 59.5%. Further, the “Amount released [%]” value under setting [12] is 73.9%. Further, the “Amount released [%]” value under setting [13] came out at 98.0%. For the same compound, under setting [14], the “Amount released [%]” value was found to be 99.0%. Moreover, under setting [15], the “Time after which a 100% release / dissolution is seen” value is on record as > 15 min and the “Release / dissolution within” value is given as < 20%.
With `CC(C)Cc1ccc(C(C)C(=O)O)cc1` (stereo not drawn) [Example 1, ibuprofen], the “Time after which a 100% release / dissolution is seen” value under setting [15] is 15 min.
For `CC(C)Cc1ccc(C(C)C(=O)O)cc1` (stereo not drawn) [Suc. monolaurate + Klucel ® LF, ibuprofen], the “Amount released [%] after 2 min” value turned out to be 98.9%.
As for `CC(C)Cc1ccc(C(C)C(=O)O)cc1` (stereo not drawn) [Example 6, ibuprofen], under setting [15], the “Time after which a 100% release / dissolution is seen” value came to 5 min and the “Release / dissolution within” value was found to be 85%.
Turning to `CC(C)Cc1ccc(C(C)C(=O)O)cc1` (stereo not drawn) [Example 15, ibuprofen], the “Rate of dissolution (in words)” value was “good rate of dissolution”.
As for `CC(C)Cc1ccc(C(C)C(=O)O)cc1` (stereo not drawn) [Suc. monolaurate + Kollicoat ® IR, ibuprofen], the “Amount released [%] after 2 min” value was determined as 97.8%.
Take `CC(C)Cc1ccc(C(C)C(=O)O)cc1` (stereo not drawn) [Solvent change without addition, ibuprofen]: the “Amount released [%]” value amounted to 0.0% under setting [1]; 20.9% under setting [2]; 48.9% under setting [3]; 67.2% under setting [4]; 76.5% under setting [5]; 94.3% under setting [6]. Further, the “Amount released [%]” value under setting [7] turned out to be 100.0%.
On to `CC(C)Cc1ccc(C(C)C(=O)O)cc1` (stereo not drawn) [Example 18, ibuprofen], for which, under setting [15], the “Time after which a 100% release / dissolution is seen” value is listed as “approximately 5 min”.
As to `CC(C)Cc1ccc(C(C)C(=O)O)cc1` (stereo not drawn) [Example 7, ibuprofen], under setting [15], the “Time after which a 100% release / dissolution is seen” value is 5 min and the “Release / dissolution within” value is on record as 85%.
In the case of `CC(C)Cc1ccc(C(C)C(=O)O)cc1` (stereo not drawn) [Suc. monolaurate + HPC, ibuprofen], the “Amount released [%] after 2 min” value amounted to 100.8%.
Turning to `CC(C)Cc1ccc(C(C)C(=O)O)cc1` (stereo not drawn) [Example 13, ibuprofen], the “Rate of dissolution (in words)” value is “good rate of dissolution”, the “Active compound dissolved after 5 min” value worked out at 92% and the “Active compound dissolved after 8 min” value is 100%.
On to `CC(C)Cc1ccc(C(C)C(=O)O)cc1` (stereo not drawn) [Suc. monolaurate + trehalose, ibuprofen], for which the “Amount released [%] after 2 min” value turned out to be 100.1%.
The same measure, in the same setting: with `CC(C)Cc1ccc(C(C)C(=O)O)cc1` (stereo not drawn) [Suc. monolaurate + dextran 200, ibuprofen] the figure was 100.4%.
Consider `CC(C)Cc1ccc(C(C)C(=O)O)cc1` (stereo not drawn) [Example 12, ibuprofen], for which the “Rate of dissolution (in words)” value was “good rate of dissolution”, the “Active compound dissolved after 5 min” value came to 87% and the “Active compound dissolved after 8 min” value is listed as 95%.
Consider `COc1ccc2cc([C@H](C)C(=O)O)ccc2c1` [Example 2, naproxen], for which, under setting [15], the “Time after which a 100% release is seen” value was 15 s.
